Source: publication PMC9822021, “Biological Activity of Amidino-Substituted Imidazo [4,5-b]pyridines” (Molecules, 2022)
In brackets after ≈: the same amount, converted by molar mass.

Columns and labels:
S. Pneumoniae ATCC 49619 = assay: Antibacterial activity in vitro, broth microdilution; type: cell-based; conditions: Streptococcus pneumoniae, ATCC49619; broth microdilution (CLSI), 16–24 h at 37 °C
Method: (§1) Synthesized compounds were prepared as 10 mM DMSO solutions and tested in a final concentration range of 100–0.2 µM [34].
(§2) Broth microdilution testing was performed according to CLSI (Clinical Laboratory Standards Institute) guidelines. MIC (minimal inhibitory concentration) values were defined as the last tested concentration of the compound at which there was no visible growth of bacteria. Inoculums for each microorganism were prepared using the direct colony suspension method, where broth solutions that achieved turbidity equivalent to 0.5 McFarland standard were additionally diluted 100× with Ca-adjusted MH media (Becton Dickinson).

S. aureus ATCC 29213 = assay: as above; type: cell-based; conditions: Staphylococcus aureus, ATCC29213; broth microdilution (CLSI), 16–24 h at 37 °C
Method: as §1, §2

E. coli ATCC 25922 = assay: as above; type: cell-based; conditions: Escherichia coli, ATCC25922; broth microdilution (CLSI), 16–24 h at 37 °C
Method: as §1, §2

E. coli Efflux Del = assay: microbe, parasite or virus in culture; type: cell-based; conditions: Escherichia coli, read-out: MIC E. coli Efflux Del
Method: as §1, §2

[1] = tested on: Capan-1 pancreatic adenocarcinoma cells; assay: In vitro antiproliferative activity, MTS proliferation assay; type: cell-based; conditions: Homo sapiens, 72 h
Method: (§3) Culture media were purchased from Gibco Life Technologies, USA, and supplemented with 10% fetal bovine serum (HyClone, GE Healthcare Life Sciences, Chicago, IL, USA), except for the media for SW620, PC3 and HeLa cells, which were purchased from Sigma.
(§4) Cells were incubated for 72 h with compounds and were then analyzed using the CellTiter 96® AQueous One Solution Cell Proliferation Assay (MTS) reagent (Promega) according to the manufacturer’s instructions. […] Compounds were tested in two independent experiments. SW620, PC3 and HeLa cells were seeded in 96-well microtiter plates at 1 × 10^4 to 3 × 10^4 cells/mL, depending on the doubling times of the specific cell line. Test agents were then added in five 10-fold dilutions (10^−8 to 10^−4 M). Working dilutions were freshly prepared on the day of testing. After 72 h of incubation, the cell growth rate was evaluated using the MTT assay as described previously. […] Each test was performed in quadruplicate in at least two individual experiments.

[2] = tested on: DND-41 acute lymphoblastic leukemia cells; assay: as above; type: cell-based; conditions: Homo sapiens, DND41, 72 h
Method: as §3, §4

[3] = tested on: HL-60 acute myeloid leukemia cells; assay: as above; type: cell-based; conditions: Homo sapiens, 72 h
Method: as §3, §4

in vitro [4] = conditions: human
in vitro [5] = conditions: human; remark: listed apart in the source
in vitro [6] = conditions: dog
[7] = tested on: Z-138 non-Hodgkin lymphoma cells; assay: In vitro antiproliferative activity, MTS proliferation assay; type: cell-based, human; conditions: Homo sapiens, Z-138, 72 h
Excerpt: (§5) Human cancer cell lines used in this manuscript, namely Capan-1, HCT-116, NCI-H460, LN-229, HL-60, K-562, Z-138, SW620, PC3 and HeLa, were acquired from the American Type Culture Collection (ATCC, Manassas, VA, USA), while the DND-41 cell line was purchased from the Deutsche Sammlung von Mikroorganismen und Zellkulturen (DSMZ Leibniz-Institut, Germany). Culture media were purchased from Gibco Life Technologies, USA, and supplemented with 10% fetal bovine serum (HyClone, GE Healthcare Life Sciences, Chicago, IL, USA), except for the media for SW620, PC3 and HeLa cells, which were purchased from Sigma.
(§6) Adherent cell lines LN-229, HCT-116, NCI-H460 and Capan-1 cells were seeded at a density between 500 and 1500 cells per well in 384-well tissue culture plates (Greiner). […]. Cells were incubated for 72 h with compounds and were then analyzed using the CellTiter 96® AQueous One Solution Cell Proliferation Assay (MTS) reagent (Promega) according to the manufacturer’s instructions. Absorbance of the samples was measured at 490 nm using a SpectraMax Plus 384 (Molecular Devices), and OD values were used to calculate the 50% inhibitory concentration (IC50). Compounds were tested in two independent experiments. SW620, PC3 and HeLa cells were seeded in 96-well microtiter plates at 1 × 10^4 to 3 × 10^4 cells/mL, depending on the doubling times of the specific cell line. Test agents were then added in five 10-fold dilutions (10^−8 to 10^−4 M). Working dilutions were freshly prepared on the day of testing. After 72 h of incubation, the cell growth rate was evaluated using the MTT assay as described previously. Absorbance of the samples was measured at 570 nm, and OD values were used to calculate the 50% inhibitory concentration (IC50). Each test was performed in quadruplicate in at least two individual experiments.

[8] = tested on: NCI-H460 lung carcinoma cells; assay: as above; type: cell-based; conditions: Homo sapiens, 72 h
Excerpt: as §5, §6

[9] = tested on: LN-229 glioblastoma cells; assay: as above; type: cell-based; conditions: Homo sapiens, 72 h
Excerpt: as §5, §6

[10] = tested on: HCT-116 colorectal carcinoma cells; assay: as above; type: cell-based; conditions: Homo sapiens, 72 h
Excerpt: as §5, §6

[11] = tested on: K-562 chronic myeloid leukemia cells; assay: as above; type: cell-based; conditions: Homo sapiens, K562, 72 h
Excerpt: as §5, §6

[12] = tested on: HeLa cervical carcinoma cells; assay: In vitro antiproliferative activity, MTT assay; type: cell-based; conditions: Homo sapiens, 72 h
Excerpt: as §5, §6

[13] = tested on: SW620 colon carcinoma cells; assay: In vitro antiproliferative activity, MTT assay; type: cell-based; conditions: Homo sapiens, SW-620, 72 h
Excerpt: as §5, §6

[14] = tested on: PC3 prostate carcinoma cells; assay: In vitro antiproliferative activity, MTT assay; type: cell-based; conditions: Homo sapiens, 72 h
Excerpt: as §5, §6

CC1(C)S[C@@H]2[C@H](NC(=O)[C@H](N)c3ccccc3)C(=O)N2[C@H]1C(=O)O [Ampicillin, ampicillin, reference compound]
MIC (S. Pneumoniae ATCC 49619): < 0.125 µM | MIC (S. aureus ATCC 29213): 1 µM (≈ 0.349 µg/mL) | MIC (E. coli ATCC 25922): 1 µM (≈ 0.349 µg/mL)

CC(C)(O/N=C(\C(=O)N[C@@H]1C(=O)N2C(C(=O)[O-])=C(C[n+]3ccccc3)CS[C@H]12)c1csc(N)n1)C(=O)O [Ceftazidime, ceftazidime, reference compound]
MIC (S. Pneumoniae ATCC 49619): 0.25 µM (≈ 0.137 µg/mL) | MIC (S. aureus ATCC 29213): 16 µM (≈ 8.75 µg/mL) | MIC (E. coli ATCC 25922): 0.25 µM (≈ 0.137 µg/mL) | MIC (E. coli Efflux Del): 0.25 µM (≈ 0.137 µg/mL)

N#Cc1ccc(-c2nc3ncccc3[nH]2)cc1 [Compound 6, 4-(1H-Imidazo[4,5-b]pyridin-2-yl)benzonitrile]
MIC (S. Pneumoniae ATCC 49619): > 64 µM | MIC (S. aureus ATCC 29213): > 64 µM | MIC (E. coli ATCC 25922): > 64 µM | IC50 [1]: > 100 µM | IC50 [2]: > 100 µM | IC50 [3]: > 100 µM | CC50 (in vitro [4]): > 100 µM | CC50 (in vitro [5]): > 100 µM | CC50 (in vitro [6]): > 100 µM | IC50 [7]: > 100 µM | MIC (E. coli Efflux Del): > 64 µM | IC50 [8]: > 100 µM | IC50 [9]: > 100 µM | IC50 [10]: > 100 µM | IC50 [11]: > 100 µM | IC50 [12]: 28.9 ± 7.2 µM | IC50 [13]: > 100 µM | IC50 [14]: > 100 µM

Cl.N=C(N)c1ccc(-c2nc3ncccc3[nH]2)cc1 [Compound 9, 4-(1H-Imidazo[4,5-b]pyridin-2-yl)benzimidamide Hydrochloride]
MIC (S. Pneumoniae ATCC 49619): > 64 µM | MIC (S. aureus ATCC 29213): > 64 µM | MIC (E. coli ATCC 25922): > 64 µM | IC50 [1]: > 100 µM | IC50 [2]: > 100 µM | IC50 [3]: > 100 µM | CC50 (in vitro [4]): > 100 µM | CC50 (in vitro [5]): > 100 µM | CC50 (in vitro [6]): > 100 µM | melting point: > 300 °C | IC50 [7]: > 100 µM | MIC (E. coli Efflux Del): > 64 µM | IC50 [8]: > 100 µM | IC50 [9]: > 100 µM | IC50 [10]: > 100 µM | IC50 [11]: > 100 µM | IC50 [12]: > 100 µM | IC50 [13]: > 100 µM | IC50 [14]: > 100 µM

Cl.c1cnc2nc(-c3ccc(C4=NCCCN4)cc3)[nH]c2c1 [Compound 12, 2-(4-(1H-Imidazo[4,5-b]pyridin-2-yl)phenyl)-3,4,5,6-tetrahydropyrimidin-1-ium Chloride]
MIC (S. Pneumoniae ATCC 49619): > 64 µM | MIC (S. aureus ATCC 29213): > 64 µM | MIC (E. coli ATCC 25922): > 64 µM | IC50 [1]: > 100 µM | IC50 [2]: > 100 µM | IC50 [3]: > 100 µM | CC50 (in vitro [4]): > 100 µM | CC50 (in vitro [5]): > 100 µM | CC50 (in vitro [6]): > 100 µM | melting point: > 300 °C | IC50 [7]: > 100 µM | MIC (E. coli Efflux Del): > 64 µM | IC50 [8]: > 100 µM | IC50 [9]: > 100 µM | IC50 [10]: > 100 µM | IC50 [11]: > 100 µM | IC50 [12]: > 100 µM | IC50 [13]: > 100 µM | IC50 [14]: > 100 µM

CC(C)NC(=N)c1ccc(-c2nc3ncc(Br)cc3[nH]2)cc1.Cl [Compound 16, 4-(6-Bromo-1H-imidazo[4,5-b]pyridin-2-yl)-N-isopropylbenzimidamide Hydrochloride]
MIC (S. Pneumoniae ATCC 49619): > 64 µM | MIC (S. aureus ATCC 29213): > 64 µM | MIC (E. coli ATCC 25922): > 64 µM | IC50 [1]: 52.7 ± 2.9 µM | IC50 [2]: 11.9 ± 0.1 µM | IC50 [3]: 91.4 ± 5.1 µM | CC50 (in vitro [6]): 71.2 ± 40.8 µM | melting point: > 300 °C | IC50 [7]: 12.1 ± 0.8 µM | MIC (E. coli Efflux Del): > 64 µM | IC50 [8]: > 100 µM | IC50 [9]: 52.4 ± 8.1 µM | IC50 [10]: 77.2 ± 19.1 µM | IC50 [11]: 53.6 ± 2.8 µM | IC50 [12]: 13.3 ± 4.3 µM | IC50 [13]: 7.4 ± 1.1 µM | IC50 [14]: 13.3 ± 2.6 µM

Cn1c(-c2ccccc2)nc2cc(Br)cnc21 [Compound 18, 6-Bromo-3-methyl-2-phenyl-3H-imidazo[4,5-b]pyridine]
MIC (S. Pneumoniae ATCC 49619): > 64 µM | MIC (S. aureus ATCC 29213): > 64 µM | MIC (E. coli ATCC 25922): > 64 µM | IC50 [1]: > 100 µM | IC50 [2]: > 100 µM | IC50 [3]: > 100 µM | CC50 (in vitro [4]): > 100 µM | CC50 (in vitro [5]): > 100 µM | CC50 (in vitro [6]): > 100 µM | melting point: 214 to 215 °C | IC50 [7]: > 100 µM | MIC (E. coli Efflux Del): > 64 µM | IC50 [8]: > 100 µM | IC50 [9]: > 100 µM | IC50 [10]: > 100 µM | IC50 [11]: > 100 µM | IC50 [12]: 48 ± 0.2 µM | IC50 [13]: > 100 µM | IC50 [14]: > 100 µM
